Literature values, collected in patent US10595479B2, “Induced mutagenesis” (Purdue Research Foundation, priority 2014, dated 2020).

System: maize
Conditions: pollen EMS protocol in maize, tested molecularly

SMILES: CCOS(C)(=O)=O [EMS, ethyl methanesulfonate]
- density of mutations: about 2 mutations per Mb of DNA
